According to patent US12655116B2, “Substituted isophthalic acid diamides” (Bayer Aktiengesellschaft, priority 2020, dated 2026):

Legend:
ECHCG [1] = assay: Pre-emergence herbicidal action against ECHCG; type: in vivo, Echinochloa crus-galli; settings: 80 g/ha; for pest or weed control at 80 g/ha: Echinochloa crus-galli, 504 h
In short: (§1)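 Herbicidal effect was assessed 3 weeks after treatment by visual comparison with untreated controls, 100% denoting dead plants. Aqueous WP or EC preparations had been applied at 600 to 800 l/ha with 0.2% wetting agent to the soil covering freshly sown seeds.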

ALOMY [2] = assay: Post-emergence herbicidal action against ALOMY; type: in vivo, Alopecurus myosuroides; settings: Alopecurus myosuroides, 504 h, dosage 20 g/ha, visual assessment about 3 weeks after treatment vs untreated controls
In short: (§2)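 Post-emergence greenhouse test; one-leaf stage, 2–3 wk post-sowing, sandy loam. Foliar spray of WP/EC in water, 600–800 l/ha, +0.2% wetting agent. Visual % action at ~3 wk vs untreated (100% = plants dead).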

AMARE [3] = assay: Pre-emergence herbicidal action against AMARE; type: in vivo, Amaranthus retroflexus; settings: for pest or weed control at 20 g/ha / pest or weed control at 80 g/ha: Amaranthus retroflexus, 504 h
In short: as §1

AVEFA [4] = assay: Pre-emergence herbicidal action against AVEFA; type: in vivo, Avena fatua; settings: 80 g/ha, pre-emergence; for pest or weed control at 80 g/ha: Avena fatua, 504 h
In short: as §1

MATIN [5] = assay: Pre-emergence herbicidal action against MATIN; type: in vivo, Matricaria inodora
In short: as §1

ALOMY [6] = assay: Pre-emergence herbicidal action against ALOMY; type: in vivo, Alopecurus myosuroides; settings: pre-emergence
In short: as §1

ABUTH [7] = assay: Post-emergence herbicidal action against ABUTH; type: in vivo, Abutilon theophrasti; settings: visual assessment about 3 weeks after treatment vs untreated controls
In short: as §2

SETVI [8] = assay: Post-emergence herbicidal action against SETVI; type: in vivo, Setaria viridis; settings: Setaria viridis, 504 h; for pest or weed control at 5 g/ha: dosage 5 g/ha; for pest or weed control at 20 g/ha: dosage 20 g/ha
In short: as §2

SETVI [9] = assay: Pre-emergence herbicidal action against SETVI; type: in vivo, Setaria viridis
In short: as §1

LOLRI = assay: Pre-emergence herbicidal action against LOLRI; type: in vivo, Lolium rigidum; settings: 80 g/ha; for pest or weed control at 80 g/ha: Lolium rigidum, 504 h
In short: as §1

VIOTR [10] = assay: Pre-emergence herbicidal action against VIOTR; type: in vivo, Viola tricolor; settings: for pest or weed control at 80 g/ha: Viola tricolor, 504 h
In short: as §1

AVEFA [11] = assay: Post-emergence herbicidal action against AVEFA; type: in vivo, Avena fatua; settings: 20 g/ha, visual assessment about 3 weeks after treatment, 100% = plants have died, 0% = like control plants; for pest or weed control at 20 g/ha: Avena fatua, 504 h
In short: as §2

VERPE [12] = assay: Pre-emergence herbicidal action against VERPE; type: in vivo, Veronica persica; settings: for pest or weed control at 20 g/ha / pest or weed control at 80 g/ha: Veronica persica, 504 h; for pest or weed control at 20 g/ha: dosage 20 g/ha
In short: as §1

AMARE [13] = assay: Post-emergence herbicidal action against AMARE; type: in vivo, Amaranthus retroflexus; settings: 20 g/ha, visual assessment about 3 weeks after treatment, 100% = plants have died, 0% = like control plants; for pest or weed control at 20 g/ha: Amaranthus retroflexus, 504 h
In short: as §2

VERPE [14] = assay: Post-emergence herbicidal action against VERPE; type: in vivo, Veronica persica; settings: 20 g/ha; for pest or weed control at 20 g/ha: Veronica persica, 504 h
In short: as §2

ABUTH [15] = assay: Pre-emergence herbicidal action against ABUTH; type: in vivo, Abutilon theophrasti
In short: as §1

PHBPU [16] = assay: Pre-emergence herbicidal action against PHBPU; type: in vivo, Pharbitis purpurea; settings: dosage 80 g/ha
In short: as §1

DIGSA [17] = assay: Pre-emergence herbicidal action against DIGSA; type: in vivo, Digitaria sanguinalis
In short: as §1

ECHCG [18] = assay: Post-emergence herbicidal action against ECHCG; type: in vivo, Echinochloa crus-galli
In short: as §2

VIOTR [19] = assay: Post-emergence herbicidal action against VIOTR; type: in vivo, Viola tricolor; settings: 20 g/ha
In short: as §2

PHBPU [20] = assay: Post-emergence herbicidal action against PHBPU; type: in vivo, Pharbitis purpurea
In short: as §2

DIGSA [21] = assay: Post-emergence herbicidal action against DIGSA; type: in vivo, Digitaria sanguinalis; settings: 20 g/ha
In short: as §2

MATIN [22] = assay: Post-emergence herbicidal action against MATIN; type: in vivo, Matricaria inodora
In short: as §2

[23] = 20 g/ha, scored visually after 3 weeks vs untreated controls, 100% = plants have died, 0% = like control plants
[24] = 80 g/ha, scored visually after 3 weeks vs untreated controls, 100% = plants have died, 0% = like control plants
[25] = Tripleurospermum inodorum, 504 h, dosage 80 g/ha
[26] = Alopecurus myosuroides, 504 h, 80 g/ha, scored visually after 3 weeks vs untreated controls (100% = plants have died, 0% = like control plants)
[27] = Abutilon theophrasti, 504 h, dosage 20 g/ha
[28] = Setaria viridis, 504 h, dosage 80 g/ha
[29] = 80 g/ha, scored visually after 3 weeks vs untreated controls (100% = plants have died, 0% = like control plants)

CNC(=O)c1c(Cl)ccc(C(=O)Nc2nnnn2C)c1Br [Example 1-349]
pest or weed control at 80 g/ha (ECHCG [1]): 90%
pest or weed control at 20 g/ha (ALOMY [2]): 80%
pest or weed control at 20 g/ha (AMARE [3]; [23]): 100%
pest or weed control at 80 g/ha (AMARE [3]; [24]): 100%
pest or weed control at 80 g/ha (AVEFA [4]): 100%
pest or weed control at 80 g/ha (MATIN [5]; [25]): 90%
pest or weed control at 80 g/ha (ALOMY [6]; [26]): 100%
pest or weed control at 5 g/ha (ABUTH [7]; Abutilon theophrasti, 504 h, dosage 5 g/ha): 80%
pest or weed control at 20 g/ha (ABUTH [7]; [27]): 90%
pest or weed control at 5 g/ha (SETVI [8]): 90%
pest or weed control at 20 g/ha (SETVI [8]): 90%
pest or weed control at 20 g/ha (SETVI [9]; Setaria viridis, 504 h, dosage 20 g/ha): 90%
pest or weed control at 80 g/ha (SETVI [9]; [28]): 100%
pest or weed control at 80 g/ha (LOLRI): 90%
pest or weed control at 80 g/ha (VIOTR [10]; dosage 80 g/ha): 100%
pest or weed control at 20 g/ha (AVEFA [11]): 80%
pest or weed control at 20 g/ha (VERPE [12]): 90%
pest or weed control at 80 g/ha (VERPE [12]; dosage 80 g/ha): 90%
pest or weed control at 20 g/ha (AMARE [13]): 100%
pest or weed control at 20 g/ha (VERPE [14]): 80%

CCn1nnnc1NC(=O)c1ccc(C(F)(F)F)c(C(=O)NC(C)C2CC2)c1Cl (centres unmarked) [Example 2-135]
Pre-emergence action against ECHCG in % (ECHCG [1]): 100%
Pre-emergence action against ABUTH (herbicidal activity) (ABUTH [15]; [29]): 100%
Pre-emergence action against ABUTH (herbicidal activity in percent) (ABUTH [15]; dosage 20 g/ha, scored visually after 3 weeks vs untreated controls, 100% = plants have died, 0% = like control plants): 100%
Pre-emergence action against AMARE in % (AMARE [3]; [23]): 100%
Pre-emergence action against AMARE in % (AMARE [3]; [29]): 100%
Pre-emergence action against AVEFA in % (AVEFA [4]): 90%
Pre-emergence action against MATIN in % (MATIN [5]; dosage 20 g/ha): 90%
Pre-emergence action against MATIN in % (MATIN [5]; dosage 80 g/ha): 100%
Pre-emergence action against ALOMY (herbicidal activity) (ALOMY [6]; [29]): 90%
Pre-emergence action against PHBPU in % (PHBPU [16]): 80%
Post-emergence action against ABUTH in % (ABUTH [7]; dosage 20 g/ha): 80%
Pre-emergence action against DIGSA in % (DIGSA [17]; dosage 20 g/ha): 100%
Pre-emergence action against DIGSA in % (DIGSA [17]; dosage 80 g/ha): 100%
Pre-emergence action against SETVI in % (SETVI [9]; dosage 80 g/ha): 100%
Pre-emergence action against LOLRI in % (LOLRI): 80%
Pre-emergence action against VIOTR in % (VIOTR [10]; dosage 20 g/ha): 100%
Pre-emergence action against VIOTR in % (VIOTR [10]; dosage 80 g/ha): 100%
Post-emergence action against ECHCG in % (ECHCG [18]; dosage 5 g/ha): 80%
Post-emergence action against ECHCG in % (ECHCG [18]; dosage 20 g/ha): 90%
Post-emergence action at 20 g/ha against AVEFA in % (AVEFA [11]): 80%
Pre-emergence action against VERPE in % (VERPE [12]; dosage 80 g/ha): 100%
Post-emergence action against VIOTR in % (VIOTR [19]): 90%
Post-emergence action against PHBPU in % (PHBPU [20]; dosage 5 g/ha): 80%
Post-emergence action against PHBPU in % (PHBPU [20]; dosage 20 g/ha): 80%
Post-emergence action at 20 g/ha against AMARE in % (AMARE [13]): 90%
Post-emergence action against VERPE in % (VERPE [14]): 90%
Post-emergence action against DIGSA (DIGSA [21]): 80%
Post-emergence action against MATIN in % (MATIN [22]; dosage 5 g/ha): 90%
Post-emergence action against MATIN in % (MATIN [22]; dosage 20 g/ha): 90%

Cn1nnnc1NC(=O)c1ccc(Br)c(C(=O)NC2CC2)c1Br [Example 1-344]
pest or weed control at 80 g/ha (ECHCG [1]): 90%
pest or weed control at 80 g/ha (ABUTH [15]; Abutilon theophrasti, 504 h, 80 g/ha, scored visually after 3 weeks vs untreated controls (100% = plants have died, 0% = like control plants)): 100%
pest or weed control at 20 g/ha (ABUTH [15]; Abutilon theophrasti, 504 h, dosage 20 g/ha, scored visually after 3 weeks vs untreated controls, 100% = plants have died, 0% = like control plants, read-out: Pre-emergence action against ABUTH (herbicidal activity in percent)): 90%
pest or weed control at 20 g/ha (ALOMY [2]): 100%
pest or weed control at 20 g/ha (AMARE [3]; [23]): 100%
pest or weed control at 80 g/ha (AMARE [3]; [24]): 100%
pest or weed control at 80 g/ha (AVEFA [4]): 90%
pest or weed control at 20 g/ha (MATIN [5]; Tripleurospermum inodorum, 504 h, dosage 20 g/ha): 90%
pest or weed control at 80 g/ha (MATIN [5]; [25]): 100%
pest or weed control at 80 g/ha (ALOMY [6]; [26]): 100%
pest or weed control at 20 g/ha (ALOMY [6]; Alopecurus myosuroides, 504 h, 20 g/ha, scored visually after 3 weeks, 100% = plants have died, 0% = like control plants): 90%
pest or weed control at 20 g/ha (ABUTH [7]; [27]): 90%
pest or weed control at 5 g/ha (SETVI [8]): 80%
pest or weed control at 20 g/ha (SETVI [8]): 90%
pest or weed control at 80 g/ha (SETVI [9]; [28]): 100%
pest or weed control at 80 g/ha (LOLRI): 90%
pest or weed control at 80 g/ha (VIOTR [10]; dosage 80 g/ha): 100%
pest or weed control at 20 g/ha (AVEFA [11]): 80%
pest or weed control at 20 g/ha (VERPE [12]): 80%
pest or weed control at 80 g/ha (VERPE [12]; dosage 80 g/ha): 90%
pest or weed control at 20 g/ha (AMARE [13]): 100%
pest or weed control at 20 g/ha (VERPE [14]): 90%
